Data: ChEMBL document CHEMBL3352773, “Synthesis and evaluation of the 2,4-diaminoquinazoline series as anti-tubercular agents” (Bioorg Med Chem, 2014)

Columns and labels:
Format in all cases: functional
[1] = tested on: Mycobacterium tuberculosis; experiment: Antituberculosis activity against Mycobacterium tuberculosis H37Rv RM1 IS6110 at nt 801 mutant assessed as complete growth inhibition after 5 days
[2] = tested on: Mycobacterium tuberculosis; experiment: Antituberculosis activity against Mycobacterium tuberculosis H37Rv RM2 GT deletion at 175 to 176 mutant assessed as complete growth inhibition after 5 days
[3] = tested on: Mycobacterium tuberculosis; experiment: Antituberculosis activity against Mycobacterium tuberculosis H37Rv RM7 C115W mutant assessed as complete growth inhibition after 5 days

Measured: MIC

FC(F)(F)c1ccc(CNc2nc(N3CCCCC3)nc3ccccc23)cc1
25 µM: all assays above
